Measured values from patent US8580747B2, “Cyclic natriuretic peptide constructs” (Palatin Technologies, Inc., priority 2006, dated 2013).
Like-named read-outs stand apart in the source and are kept apart here. Bridge positions count the residues as written; N and C are the ends. Square brackets hold non-standard residues; d marks the D form. Peptide text beside a SMILES is read from it. * marks the point of attachment. Piperazin2one(3S-Bu,6R-CO) = CCCC[C@@H]1NC[C@H](C(=O)*)NC1=O; X2 = N=C(N)NCCC[C@@H]1C(=O)N[C@@H](C(N)=O)CN1*; X1 = N=C(N)NCCC[C@H]1C(=O)N[C@@H](C(N)=O)CN1*; X3 = CC(C)C[C@@H]1NC[C@H](C(=O)*)NC1=O; dNle = CCCC[C@@H](N)C(=O)O; Heptanoyl = CCCCCCC(=O)*; Nle = CCCC[C@H](N)C(=O)O

What was measured:
[1] = rat, in vivo, iv
[2] = biological target: T1, NEP (neutral endopeptidase) (Homo sapiens, UniProt P08473); assay: hNEP resistance assay (digestion by neutral endopeptidase); format: in vitro ADME; details: pH 7.4
T1 construct: purchased R&D Systems, Minneapolis, Minn; 1182-ZN
T1 sequence (P08473 52-750 limits assumed): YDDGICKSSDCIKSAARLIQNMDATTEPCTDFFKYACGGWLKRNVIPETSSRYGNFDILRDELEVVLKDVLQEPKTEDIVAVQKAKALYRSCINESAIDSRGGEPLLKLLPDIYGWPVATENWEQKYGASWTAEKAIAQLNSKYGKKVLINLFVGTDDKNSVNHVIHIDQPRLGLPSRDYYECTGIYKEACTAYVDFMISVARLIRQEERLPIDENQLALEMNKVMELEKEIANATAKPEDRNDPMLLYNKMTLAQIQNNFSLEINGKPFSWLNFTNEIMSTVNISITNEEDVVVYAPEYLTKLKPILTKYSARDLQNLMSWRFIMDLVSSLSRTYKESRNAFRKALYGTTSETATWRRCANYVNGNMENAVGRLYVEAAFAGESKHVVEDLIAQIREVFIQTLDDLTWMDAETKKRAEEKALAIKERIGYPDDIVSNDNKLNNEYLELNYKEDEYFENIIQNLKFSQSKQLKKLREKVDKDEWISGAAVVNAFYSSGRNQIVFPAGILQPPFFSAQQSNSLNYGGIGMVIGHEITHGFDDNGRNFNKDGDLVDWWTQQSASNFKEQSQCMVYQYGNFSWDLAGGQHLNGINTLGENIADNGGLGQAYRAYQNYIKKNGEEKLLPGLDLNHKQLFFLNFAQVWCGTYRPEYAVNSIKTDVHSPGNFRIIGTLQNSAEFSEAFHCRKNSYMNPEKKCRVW
Procedure: NEP resistance of various constructs of the invention was evaluated using the following experimental procedure. All constructs were diluted in 0.1 M Tris-HCL buffer (pH 7.4) to 100 μM. 40 μL of diluted constructs were added to each tube and all tubes were kept on ice. 40 μL of diluted NEP, either human recombinant NEP (R&D Systems, Minneapolis, Minn., catalogue #1182-ZN) at 8 ng/μL or mouse NEP (R&D Systems, catalog #1126-ZN) at 2.5 ng/μL, was added to each tube. The tubes were mixed gently and spun. […] At the end of the incubation time, the reaction was stopped by adding 5 μL of 10% TFA. […] The extent to which NEP was active against the constructs was then analyzed by HPLC and/or LC/MS. Data analysis included determining the percent of remaining starting material, i.e., undigested peptide construct, and the percent and sequence of each proteolytic fragment.

[3] = human, isolated enzyme neprilysin
[4] = human recombinant NEP (neutral endopeptidase), incubation with human recombinant NEP at 37° C., 1 h, read-out: hNEP % of Starting Material 1 h
[5] = human recombinant NEP (neutral endopeptidase), incubation with human recombinant NEP at 37° C., 2 h, read-out: hNEP % of Starting Material 2 h

| clearance [1] | AUC ([1]; 2 mg/kg) | Vd ([1]; 2 mg/kg) | clearance ([1]; 2 mg/kg) | half-life ([1]; 2 mg/kg) | remaining at 1 h, 50 µM [2, 3] | remaining at 2 h, 50 µM [2, 3] | remaining at 1 h, 50 µM [2, 4] | remaining at 2 h, 50 µM [2, 5] | SMILES | remaining at 1 h, 50 µM ([2]; isolated enzyme neprilysin, incubation with human recombinant NEP at 37° C., 1 h, read-out: hNEP % of Starting Material 1 h) | remaining at 2 h, 50 µM ([2]; isolated enzyme neprilysin, incubation with human recombinant NEP at 37° C., 2 h, read-out: hNEP % of Starting Material 2 h) |
| --- | --- | --- | --- | --- | --- | --- | --- | --- | --- | --- | --- |
| 14 mL/min/kg | 1.25 µM·h | 0.6 L/kg | 14 mL/min/kg | 42 min | 97% | 92% |  |  | CCCC[C@@H]1NC[C@H](C(=O)N[C@H]2CSSC[C@@H](C(=O)N[C@@H](Cc3ccc(O)cc3)C(=O)N3C[C@H](C(N)=O)NC(=O)[C@@H]3CCCNC(=N)N)NC(=O)[C@H](CO)NC(=O)[C@H]([C@@H](C)CC)NC(=O)[C@H](CCCNC(=N)N)NC(=O)[C@H](CC(=O)O)NC(=O)[C@@H](CCCC)NC(=O)[C@H](CCCNC(=N)N)NC(=O)CNC(=O)CNC(=O)[C@H](Cc3ccccc3)NC(=O)[C@H](Cc3c[nH]cn3)NC2=O)NC1=O [1-43] ({Piperazin2one(3S-Bu,6R-CO)}-CHFGGR[dNle]DRISCY-X1; disulfide 1-12) |  |  |
|  | 0.85 µM·h | 0.3 L/kg | 23 mL/min/kg | 18 min |  |  |  |  | CCCC[C@@H]1NC[C@H](C(=O)N[C@H]2CSSC[C@@H](C(=O)N[C@@H](Cc3ccc(O)cc3)C(=O)N3C[C@H](C(N)=O)NC(=O)[C@@H]3CCCNC(=N)N)NC(=O)[C@H](CO)NC(=O)[C@H]([C@@H](C)CC)NC(=O)[C@@H](CCCNC(=N)N)NC(=O)[C@H](CC(=O)O)NC(=O)[C@H](CCCC)NC(=O)[C@H](CCCNC(=N)N)NC(=O)CNC(=O)CNC(=O)[C@H](Cc3ccccc3)NC(=O)[C@H](Cc3c[nH]cn3)NC2=O)NC1=O [1-45] ({Piperazin2one(3S-Bu,6R-CO)}-CHFGGR[Nle]D[dR]ISCY-X1; disulfide 1-12) |  |  |
|  | 0.01 µM·h | 57 L/kg | 1860 mL/min/kg | 24 min |  |  |  |  | CCCC[C@@H]1NC[C@H](C(=O)N[C@H]2CSSC[C@@H](C(=O)N[C@@H](Cc3ccc(O)cc3)C(=O)N3C[C@H](C(N)=O)NC(=O)[C@@H]3CCCNC(=N)N)NC(=O)[C@H](CO)NC(=O)[C@H]([C@@H](C)CC)NC(=O)[C@H](CCCNC(=N)N)NC(=O)[C@H](C)NC(=O)[C@H](CCCC)NC(=O)[C@H](CCCNC(=N)N)NC(=O)CNC(=O)CNC(=O)[C@H](Cc3ccccc3)NC(=O)[C@H](Cc3c[nH]cn3)NC2=O)NC1=O [1-35] |  |  |
| 12 mL/min/kg |  |  |  |  |  |  | 96% | 93% | CCCC[C@@H]1NC[C@H](C(=O)N[C@H]2CSSC[C@@H](C(=O)N[C@@H](Cc3ccc(O)cc3)C(=O)N3C[C@H](C(N)=O)NC(=O)[C@H]3CCCNC(=N)N)NC(=O)[C@H](CO)NC(=O)[C@H]([C@@H](C)CC)NC(=O)[C@H](CCCNC(=N)N)NC(=O)[C@H](CC(=O)O)NC(=O)[C@@H](CCCC)NC(=O)[C@H](CCCNC(=N)N)NC(=O)CNC(=O)[C@@H](C)NC(=O)[C@H](Cc3ccccc3)NC(=O)[C@H](Cc3c[nH]cn3)NC2=O)NC1=O [1-133] ({Piperazin2one(3S-Bu,6R-CO)}-CHF[dA]GR[dNle]DRISCY-X2; disulfide 1-12) |  |  |
| 456 mL/min/kg | 0.042 µM·h | 0.8 L/kg | 456 mL/min/kg | 6 min |  |  | 6% | 0% | CCCC[C@@H]1NC[C@H](C(=O)N[C@H]2CSSC[C@@H](C(=O)N[C@@H](Cc3ccc(O)cc3)C(=O)N3C[C@H](C(N)=O)NC(=O)[C@@H]3CCCNC(=N)N)NC(=O)[C@H](CO)NC(=O)[C@H]([C@@H](C)CC)NC(=O)[C@H](C)NC(=O)[C@H](CC(=O)O)NC(=O)[C@H](CCCC)NC(=O)[C@H](C)NC(=O)CNC(=O)CNC(=O)[C@H](Cc3ccccc3)NC(=O)[C@H](Cc3c[nH]cn3)NC2=O)NC1=O [1-100] ({Piperazin2one(3S-Bu,6R-CO)}-CHFGGA[Nle]DAISCY-X1; disulfide 1-12) |  |  |
| 21 mL/min/kg |  |  |  |  | 87% | 70% |  |  | CCCCCCC(=O)N[C@H]1CSSC[C@@H](C(=O)N[C@@H](Cc2ccc(O)cc2)C(=O)N2C[C@H](C(N)=O)NC(=O)[C@@H]2CCCNC(=N)N)NC(=O)[C@H](CO)NC(=O)[C@H]([C@@H](C)CC)NC(=O)[C@H](CCCNC(=N)N)NC(=O)[C@H](CC(=O)O)NC(=O)[C@@H](CCCC)NC(=O)[C@H](CCCNC(=N)N)NC(=O)CNC(=O)CNC(=O)[C@H](Cc2ccccc2)NC(=O)[C@H](Cc2c[nH]cn2)NC1=O [1-131] (Heptanoyl-CHFGGR[dNle]DRISCY-X1; disulfide 1-12) |  |  |
|  | 0.369 µM·h | 0.7 L/kg | 50 mL/min/kg | 18 min |  |  |  |  | CCCC[C@@H]1NC[C@H](C(=O)N[C@H]2CSSC[C@@H](C(=O)N[C@@H](Cc3ccc(O)cc3)C(=O)N3C[C@H](C(N)=O)NC(=O)[C@@H]3CCCNC(=N)N)NC(=O)[C@H](CO)NC(=O)[C@H]([C@@H](C)CC)NC(=O)[C@H](CCCNC(=N)N)NC(=O)[C@H](CC(=O)O)NC(=O)[C@H](CCCC)NC(=O)[C@@H](CCCNC(=N)N)NC(=O)CNC(=O)CNC(=O)[C@H](Cc3ccccc3)NC(=O)[C@H](Cc3c[nH]cn3)NC2=O)NC1=O [1-42] ({Piperazin2one(3S-Bu,6R-CO)}-CHFGG[dR][Nle]DRISCY-X1; disulfide 1-12) |  |  |
|  | 0.113 µM·h | 0.8 L/kg | 168 mL/min/kg | 6 min |  |  |  |  | CCCC[C@@H]1NC[C@H](C(=O)N[C@H]2CSSC[C@@H](C(=O)N[C@@H](Cc3ccc(O)cc3)C(=O)N3C[C@H](C(N)=O)NC(=O)[C@@H]3CCCNC(=N)N)NC(=O)[C@H](C)NC(=O)[C@H]([C@@H](C)CC)NC(=O)[C@H](CCCNC(=N)N)NC(=O)[C@H](CC(=O)O)NC(=O)[C@H](CCCC)NC(=O)[C@H](CCCNC(=N)N)NC(=O)CNC(=O)CNC(=O)[C@H](Cc3ccccc3)NC(=O)[C@H](C)NC2=O)NC1=O [1-69] ({Piperazin2one(3S-Bu,6R-CO)}-CAFGGR[Nle]DRIACY-X1; disulfide 1-12) |  |  |
|  | 0.478 µM·h | 0.5 L/kg | 40 mL/min/kg | 18 min |  |  |  |  | CCCC[C@@H]1NC[C@H](C(=O)N[C@H]2CSSC[C@@H](C(=O)N[C@@H](Cc3ccc(O)cc3)C(=O)N3C[C@H](C(N)=O)NC(=O)[C@@H]3CCCNC(=N)N)NC(=O)[C@H](CO)NC(=O)[C@H]([C@@H](C)CC)NC(=O)[C@H](CCCNC(=N)N)NC(=O)[C@H](CC(=O)O)NC(=O)[C@H](CCCC)NC(=O)[C@H](CCCNC(=N)N)NC(=O)CNC(=O)[C@@H](C)NC(=O)[C@H](Cc3ccccc3)NC(=O)[C@H](Cc3c[nH]cn3)NC2=O)NC1=O [1-68] |  |  |
|  | 0.142 µM·h | 2.8 L/kg | 134 mL/min/kg | 18 min |  |  |  |  | CCCC[C@@H]1NC[C@H](C(=O)N[C@H]2CSSC[C@@H](C(=O)N[C@@H](Cc3ccc(O)cc3)C(=O)N3C[C@H](C(N)=O)NC(=O)[C@@H]3CCCNC(=N)N)NC(=O)[C@H](CO)NC(=O)[C@H]([C@@H](C)CC)NC(=O)[C@H](CCCNC(=N)N)NC(=O)[C@H](CC(=O)O)NC(=O)[C@H](CCCC)NC(=O)[C@H](CCCNC(=N)N)NC(=O)CNC(=O)CNC(=O)[C@@H](Cc3ccccc3)NC(=O)[C@H](Cc3c[nH]cn3)NC2=O)NC1=O [1-39] ({Piperazin2one(3S-Bu,6R-CO)}-CH[dF]GGR[Nle]DRISCY-X1; disulfide 1-12) |  |  |
|  | 0.19 µM·h | 1 L/kg | 94 mL/min/kg | 12 min |  |  |  |  | CCCC[C@@H]1NC(=O)[C@H](CCCNC(=N)N)NC(=O)CNC(=O)CNC(=O)[C@H](Cc2ccccc2)NC(=O)[C@H](Cc2c[nH]cn2)NC(=O)[C@@H](NC(=O)[C@H]2CN[C@@H](CC(C)C)C(=O)N2)CSSC[C@@H](C(=O)N[C@@H](Cc2ccc(O)cc2)C(=O)N2C[C@H](C(N)=O)NC(=O)[C@@H]2CCCNC(=N)N)NC(=O)[C@H](CO)NC(=O)[C@H]([C@@H](C)CC)NC(=O)[C@H](CCCNC(=N)N)NC(=O)[C@H](CC(=O)O)NC1=O [1-51] (X3-CHFGGR[Nle]DRISCY-X1; disulfide 1-12) |  |  |
|  | 0.351 µM·h | 1.1 L/kg | 51 mL/min/kg | 24 min |  |  |  |  | CCCC[C@@H]1NC[C@H](C(=O)N[C@H]2CSSC[C@@H](C(=O)N[C@@H](Cc3ccc(O)cc3)C(=O)N3C[C@H](C(N)=O)NC(=O)[C@@H]3CCCNC(=N)N)NC(=O)[C@H](CO)NC(=O)[C@H]([C@@H](C)CC)NC(=O)[C@H](CCCNC(=N)N)NC(=O)[C@H](CC(=O)O)NC(=O)[C@H](CCCC)NC(=O)[C@H](CCCNC(=N)N)NC(=O)CNC(=O)CNC(=O)[C@H](Cc3ccccc3)NC(=O)[C@@H](Cc3c[nH]cn3)NC2=O)NC1=O [1-28] ({Piperazin2one(3S-Bu,6R-CO)}-C[dH]FGGR[Nle]DRISCY-X1; disulfide 1-12) |  |  |

| SMILES | clearance [1] | AUC ([1]; 2 mg/kg) | Vd ([1]; 2 mg/kg) | clearance ([1]; 2 mg/kg) | half-life ([1]; 2 mg/kg) | remaining at 1 h, 50 µM [2, 3] | remaining at 2 h, 50 µM [2, 3] | remaining at 1 h, 50 µM [2, 4] | remaining at 2 h, 50 µM [2, 5] | remaining at 1 h, 50 µM ([2]; isolated enzyme neprilysin, incubation with human recombinant NEP at 37° C., 1 h, read-out: hNEP % of Starting Material 1 h) | remaining at 2 h, 50 µM ([2]; isolated enzyme neprilysin, incubation with human recombinant NEP at 37° C., 2 h, read-out: hNEP % of Starting Material 2 h) |
| --- | --- | --- | --- | --- | --- | --- | --- | --- | --- | --- | --- |
| CCCCCCC(=O)N[C@H]1CSSC[C@@H](C(=O)N[C@@H](Cc2ccc(O)cc2)C(=O)N2C[C@H](C(N)=O)NC(=O)[C@@H]2CCCNC(=N)N)NC(=O)[C@H](CO)NC(=O)[C@H]([C@@H](C)CC)NC(=O)[C@H](CCCNC(=N)N)NC(=O)[C@H](CC(=O)O)NC(=O)[C@H](CCCC)NC(=O)[C@H](CCCNC(=N)N)NC(=O)CNC(=O)[C@@H](C)NC(=O)[C@H](Cc2ccccc2)NC(=O)[C@H](Cc2c[nH]cn2)NC1=O [1-130] (Heptanoyl-CHF[dA]GR[Nle]DRISCY-X1; disulfide 1-12) | 92 mL/min/kg |  |  |  |  |  |  |  |  | 75% | 56% |
